The test system of assay [1] is antennae of male P. interpunctella. The experiment in a line: GC-EAD electrophysiology of yeast-produced pheromone, male Plodia interpunctella antennae. The following applies: extracts of yeast cell pellet and medium. As for the experimental part: (§1) Insect rearing and tissue collection. The E. cautella individuals were reared on an artificial diet at 25±2.0° C. under an L16:D8 photoperiod as previously described in the field. Freshly emerged female adults were collected daily before the scotophase and considered to be 0 d old. The female pupae were collected separately, and the newly emerged adults were maintained in a vial under the same conditions. Laboratory cultures of S. exigua and P. interpunctella were reared at 23±1° C. under a 17:7 L:D photoperiod and 60% relative humidity and fed on wheat-germs based and beans based artificial diet, respectively. The male and female pupae were kept separately. Adults were fed with a 10% honey solution, and two- to three-day-old unmated males were used for the electrophysiological experiments.
Electrophysiology of ZETA yeast produced pheromone. The antennal electrophysiological activity of the yeast-derived pheromone was tested by gas chromatography with electroantennographic detection (GC-EAD). An Agilent 7890 gas chromatograph equipped with a flame ionization detector (FID), an HP-INNOWax column (30 m×0.25 mm i.d., and 0.25 μm film thickness; J&W Scientific, USA) was used. Antennae of male S. exigua and P. interpunctella with both tips cut-off and associated with the head were mounted on a PRG-2 EAG (10× gain) probe (Syntech, Kirchzarten, Germany) using conductive gel (Blågel, Cefar, Malmö, Sweden). The antennal preparation was put in a flow of charcoal-filtered and humidified air that passed through the column outlet. Hydrogen was used as the carrier gas with a constant flow of 1.8 mL/min, and the GC effluent was directed to the FID and EAD by a 1:1 division. The GC inlet was set at 250° C., the transfer line was set at 255° C., and the detector was set at 280° C. The GC oven was programmed from 80° C. for 1 min, then increased to 210° C. at a rate of 10° C./min and held for 10 min. Data were collected with the software GC-EAD Pro Version 4.1 (Syntech).

Assay [2] has as its system antennae of male S. exigua. Kind of assay: GC-EAD electrophysiology of yeast-produced pheromone, male Spodoptera exigua antennae. The following applies: extracts of yeast cell pellet and medium. As for the experimental part:
as §1
Electrophysiology of ZETA yeast produced pheromone. The antennal electrophysiological activity of the yeast-derived pheromone was tested by gas chromatography with electroantennographic detection (GC-EAD). An Agilent 7890 gas chromatograph equipped with a flame ionization detector (FID), an HP-INNOWax column (30 m×0.25 mm i.d., and 0.25 μm film thickness; J&W Scientific, USA) was used. […]

The structures appear in SMILES notation. Entries after “also recorded” stand apart in the source; their conditions may differ.

Regarding `CCCC/C=C\CCCCCCCCOC(C)=O` [Z9-14:OAc, (Z)-9-tetradecenyl acetate], the “antennal response (EAD)” value in assay [1] and in assay [2] was “responded strongly” throughout.
Turning to `C/C=C/C/C=C\CCCCCCCCOC(C)=O` [ZETA, (Z,E)-9,12-tetradecadienyl acetate], the “antennal response (EAD)” value in assay [1] and in assay [2] was “distinct antennal responses; also recorded: responded strongly; also recorded: typical antennal responses” each time.
In the case of `CCCCCCCCCCCCCCOC(C)=O` [tetradecanyl acetate], the “antennal response (EAD)” value in assay [1] is on record as “minor response”.

The values are drawn from US20240287553A1, “Methods of Production of Double Unsaturated Pheromones Using Metabolic Pathways” (ISCA Technologies, Inc., priority 2022, published 2024).
